Patent US10806726B2, “Methods of using indazole-3-carb oxamides and their use as Wnt/B-catenin signaling pathway inhibitors” (Samumed, LLC, priority 2016, dated 2020)
Like-named read-outs stand apart in the source and are kept apart here.

Experiments:
[1] = Pharmacokinetics after single topical application in rats (plasma, tendon, skin); format: in vivo, rat; conditions: for AUC(0-t) / Cmax / Tmax: topical or ocular; for Kp: tendon and plasma
Protocol: The compound 175 formulation was applied once topically to each ankle of the hind leg of each animal at 60 μL volume (30 μL/cm^2×2 cm^2) over the area of the Achilles tendon.
Blood samples (˜0.5 mL) were collected via cardiac puncture, into tubes containing K2EDTA as anticoagulant, at 1, 2, 4, 7 and 24 hours post-dose from 2 animals per timepoint (n=2). Plasma was harvested and frozen at −80° C. for bioanalysis.
The Achilles tendons from both ankles were collected following euthanasia at 1, 2, 4, 7 and 24 hours post-dose from 2 animals per timepoint (n=4) from all groups. Skin tissue samples were collected from the dose-site at 7 and 24 hours post-dose from 2 animals per timepoint (n=4) in Group 2. Tissues were frozen at −80° C. for bioanalysis. Blood and tissue collection schedule is outlined in Table 8 below.
Skin tissue samples were processed using the following procedures: 1) Weigh tissue and homogenize using cryoPrep (Covaris); 2) Add 9× volume of Acetonitrile:Methanol (70:30) and vortex for one hour; 3) Aliquot 100 μL of tissue homogenate into 96 microtube polypropylene plate; 4) Add 10 μL of working standard to each standard; 5) Add 10 μL of methanol in all samples and blanks; 6) Add 10 μL of internal standard (IS) to all tubes except blanks; 7) Spin in centrifuge at 3000 rpm for 10 minutes; and 8) Transfer 100 μL of supernatant into 96-well plate containing 150 μL of water. Cap and vortex for LC/MS/MS analysis.
The chromatograms of the samples were integrated and calibrated using Analyst 1.6.2 (AB Sciex, Redwood City, Calif.). Linear regression with 1/x^2 weighting and internal standardization was used for standard calibration, with an acceptance criterion of ±30% of nominal standard concentration. The lower limit of quantitation (LLOQ) was 2.00 ng/mL (plasma), 6.00 ng/g (tendon) and 25.0 ng/g (skin). Pharmacokinetic parameters were estimated by noncompartmental analysis from individual concentration versus time profiles using Pheonix WinNonlin version 6.3 (Certara, Inc., Princeton, N.J.). The time to maximum concentration (tmax) and the maximum concentration (Cmax) were determined based on measured plasma and tissue concentrations. The area under the curve (AUC0-last) was calculated using the linear trapezoidal rule.

KC/GRO in plasma = assay: Rat Tendinopathy Model (1), plasma biomarker KC/GRO; format: in vivo
Protocol: Fifty (50 μl) of Collagenase Type IA (10 mg/ml in PBS, pH 7.4, approximately 469 units/mg) (Catalog # C5138, Sigma, St. Louis, Mo.) was injected into the Achilles tendon of both ankles near the osteotendinous junction of male Sprague Dawley CD® IGS rats (CRL, Inc.), using insulin syringes with 28.5 G needle.
[…] […] All rats were periodically observed for any pain, illnesses or abnormalities. At various time points, blood was collected for plasma in lithium heparin coated tubes by saphenous vein bleeding. For histology, rats were euthanized using isoflurane, tendons were isolated (n=6 tendons/group), fixed in 10% buffered formalin (Catalog # SF93-4, Fisher, Pittsburgh Pa.) and H & E histology staining was performed at a secondary site (Pacific Pathology, San Diego, Calif.). For biochemical analysis, tendons were isolated (n=4 tendons/group), flash frozen in liquid nitrogen and then stored at −80° C. for subsequent biochemical analysis (not reported).
Following manufacturer's instructions, KC/GRO plasma levels were determined using the KC/GRO Immunoassay kit (Catalog#900-K57, Peprotech, Rocky Hill, N.J.). Briefly, 96-well plates were coated with the anti-rat KC/GRO capture antibody overnight and washed to remove excess antibody. Plasma samples were incubated in the coated plates for 2 hours at room temperature. Following washes to remove unbound proteins, biotinylated anti-rat KC/GRO detection antibody was added and incubated for 30 mins at room temperature. Following washes to remove unbound excess antibody, avidin-HRP was added and incubated for 30 mins at room temperature. Following washes to remove unbound Avidin-HRP, the ABTS substrate was added and the plates were read on the Cytation 3 plate reader (Biotek Inc., Winooski, Vt.) at an absorbance of 525 nm with correction at 450 nm. All samples were processed in triplicate.
In this study, a total of 64 sections were scored for Group 1 (sham injection group) and approximately 96 sections each for Group 2 (Collagenase-Vehicle), Group 3 (Collagenase-compound 175 with BA preservative) group and Group 4 (Collagenase-compound 175 without preservative). To determine statistical significance between groups, student's t-test was performed with p<0.05 considered as significant for histology scoring and biomarker assay.

[2] = Tendon, Group 1, 1 mg/mL, 1% BA, single topical
[3] = Tendon, Group 2, 10 mg/mL, 1% BA, single topical
[4] = Tendon, Group 3, 10 mg/mL, no preservative (0.5% Tween 80), single topical
[5] = male, Sprague Dawley, rat, plasma, 1 mg/mL, Plasma, Group 1, 1 mg/mL, 1% BA, single topical
[6] = male, Sprague Dawley, rat, plasma, 10 mg/mL, Plasma, Group 2, 10 mg/mL, 1% BA, single topical
[7] = male, Sprague Dawley, rat, plasma, 10 mg/mL, Plasma, Group 3, 10 mg/mL, no preservative (0.5% Tween 80), single topical
[8] = male, Sprague Dawley, rat, tendon, 1 mg/mL, Tendon, Group 1, 1 mg/mL, 1% BA, single topical
[9] = male, Sprague Dawley, rat, tendon, 10 mg/mL, Tendon, Group 2, 10 mg/mL, 1% BA, single topical
[10] = male, Sprague Dawley, rat, tendon, 10 mg/mL, Tendon, Group 3, 10 mg/mL, no preservative (0.5% Tween 80), single topical

COc1ccc(NC(=O)c2n[nH]c3ccc(-c4cncc(CN5CCCCC5)c4)cc23)cn1 [compound 175, N-(6-Methoxypyridin-3-yl)-5-(5-(piperidin-1-ylmethyl)pyridin-3-yl)-1H-indazole-3-carboxamide]
plasma exposure of Group 3 relative to Group 2 ([1]; 10 mg/mL without BA (Tween 80) vs 10 mg/mL with BA): ~0.2 × | tendon exposure of Group 3 relative to Group 2 ([1]; 10 mg/mL without BA vs 10 mg/mL with BA): ~4 × | skin concentration relative to tendon concentrations ([1]; 7 and 24 hours post-dose, Group 2): roughly 1000 × | increase in tendon AUC(0-last) for a 10× dose-increment ([1]; Group 2 vs Group 1, formulations containing BA): 3.4 × | last ([1]; Plasma, Group 1, 1 mg/mL, 1% BA, single topical): 1.00 h | last ([1]; Plasma, Group 2, 10 mg/mL, 1% BA, single topical): 7.00 h | last ([1]; Plasma, Group 3, 10 mg/mL, no preservative (0.5% Tween 80), single topical): 7.00 h | last ([1]; Skin, Group 2, 10 mg/mL, 1% BA, single topical): 24.0 h | AUC(0-last) [1, 2]: 2164 ng·h/g | last [1, 2]: 24.0 h | AUC(0-last) [1, 3]: 7270 ng·h/g | last [1, 3]: 24.0 h | AUC(0-last) [1, 4]: 28077 ng·h/g | last [1, 4]: 24.0 h | AUC(0-t) [1, 5]: 0.65 ng·h/mL | Cmax [1, 5]: 1.3 ng/mL | Tmax [1, 5]: 1 h | AUC(0-t) [1, 6]: 36.1 ng·h/mL | Cmax [1, 6]: 10.6 ng/mL | Tmax [1, 6]: 4 h | AUC(0-t) [1, 7]: 6.79 ng·h/mL | Cmax [1, 7]: 1.94 ng/mL | Tmax [1, 7]: 7 h | Tmax ([1]; male, Sprague Dawley, rat, skin, 10 mg/mL, Skin, Group 2, 10 mg/mL, 1% BA, single topical): 7 h | Cmax ([1]; male, Sprague Dawley, rat, skin, 10 mg/mL, Skin, Group 2, 10 mg/mL, 1% BA, above quantitation limit (AQL > 25000 ng/g), reported as estimated): 209000 ng/g | concentration at 7 h ([1]; male, Sprague Dawley, rat, skin, topical, 7 hours post-dose, Group 2, 10 mg/mL containing BA, above quantitation limit, estimated): 209000 ng/g | concentration at 24 h ([1]; male, Sprague Dawley, rat, skin, topical, 24 hours post-dose, Group 2, 10 mg/mL containing BA, above quantitation limit, estimated): 113000 ng/g | Kp ([1]; male, Sprague Dawley, rat, topical, 1 mg/mL, Tendon to plasma, Group 1, 1 mg/mL, 1% BA, read-out: Tissue/Plasma AUC Ratio): 3330 | Kp ([1]; male, Sprague Dawley, rat, topical, 10 mg/mL, Tendon to plasma, Group 2, 10 mg/mL, 1% BA, read-out: Tissue/Plasma AUC Ratio): 202 | Kp ([1]; male, Sprague Dawley, rat, topical, 10 mg/mL, Tendon to plasma, Group 3, 10 mg/mL without BA, read-out: Tissue/Plasma AUC Ratio): 4140 | Kp ([1]; male, Sprague Dawley, rat, topical, all dose groups, single topical administration, read-out: tendon to plasma ratios, range across groups): 202 to 4140 | Cmax [1, 8]: 519 ng/g | Tmax [1, 8]: 1 h | Cmax [1, 9]: 1930 ng/g | Tmax [1, 9]: 1 h | Cmax [1, 10]: 7050 ng/g | Tmax [1, 10]: 1 h | plasma KC/GRO vs vehicle (KC/GRO in plasma; 10 mg/mL with or without BA preservative): significantly decreased the levels of KC/GRO in plasma | Plasma KC/GRO Concentration (KC/GRO in plasma; Day 0, Group 3, 10 mg/mL with 0.5% BA): 332 ± 51.3 pg/mL | Plasma KC/GRO Concentration (KC/GRO in plasma; Day 0, Group 4, 10 mg/mL without BA, with 0.5% Tween 80): 530 ± 31.4 pg/mL | Plasma KC/GRO Concentration (KC/GRO in plasma; Day 1, Group 3, 10 mg/mL with 0.5% BA): 521 ± 23.9 pg/mL | Plasma KC/GRO Concentration (KC/GRO in plasma; Day 1, Group 4, 10 mg/mL without BA, with 0.5% Tween 80): 637 ± 120 pg/mL | Plasma KC/GRO Concentration (KC/GRO in plasma; Day 3, Group 3, 10 mg/mL with 0.5% BA): 813 ± 61.4 pg/mL | Plasma KC/GRO Concentration (KC/GRO in plasma; Day 3, Group 4, 10 mg/mL without BA, with 0.5% Tween 80): 541 ± 58.9 pg/mL | Plasma KC/GRO Concentration (KC/GRO in plasma; Day 5, Group 3, 10 mg/mL with 0.5% BA): 480 ± 48.7 pg/mL | Plasma KC/GRO Concentration (KC/GRO in plasma; Day 5, Group 4, 10 mg/mL without BA, with 0.5% Tween 80): 410 ± 86.0 pg/mL | Plasma KC/GRO Concentration (KC/GRO in plasma; Day 7, Group 3, 10 mg/mL with 0.5% BA): 421 ± 57.2 pg/mL | Plasma KC/GRO Concentration (KC/GRO in plasma; Day 7, Group 4, 10 mg/mL without BA, with 0.5% Tween 80): 451 ± 76.6 pg/mL | Plasma KC/GRO Concentration (KC/GRO in plasma; Day 14, Group 3, 10 mg/mL with 0.5% BA): 400 ± 10.3 pg/mL | Plasma KC/GRO Concentration (KC/GRO in plasma; Day 14, Group 4, 10 mg/mL without BA, with 0.5% Tween 80): 424 ± 76.2 pg/mL | Plasma KC/GRO Concentration (KC/GRO in plasma; Day 21, Group 3, 10 mg/mL with 0.5% BA): 408 ± 83.3 pg/mL | Plasma KC/GRO Concentration (KC/GRO in plasma; Day 21, Group 4, 10 mg/mL without BA, with 0.5% Tween 80): 347 ± 111 pg/mL | plasma KC/GRO levels, range (KC/GRO in plasma; Days 5-21, treated group with BA): 400 to 480 pg/mL | plasma KC/GRO levels, range (KC/GRO in plasma; Days 5-21, treated group without BA): 347 to 451 pg/mL
